Values quoted from earlier work, collected in patent US20210228408A1, “Glaucoma Treatment Via Intracameral Ocular Implants” (Allergan, Inc., priority 2015, published 2021).

Experiments:
[1] = target: prostaglandin F (FP) receptor (Homo sapiens, UniProt P43088); conditions: read-out: Most potent measured EC50 on FP receptor
[2] = target: Cloned Human Ciliary Body FP Prostaglandin Receptor (Homo sapiens, UniProt P43088); conditions: read-out: Functional Potency, EC50
Cloned Human Ciliary Body FP Prostaglandin Receptor, sequence (P43088 whole entry): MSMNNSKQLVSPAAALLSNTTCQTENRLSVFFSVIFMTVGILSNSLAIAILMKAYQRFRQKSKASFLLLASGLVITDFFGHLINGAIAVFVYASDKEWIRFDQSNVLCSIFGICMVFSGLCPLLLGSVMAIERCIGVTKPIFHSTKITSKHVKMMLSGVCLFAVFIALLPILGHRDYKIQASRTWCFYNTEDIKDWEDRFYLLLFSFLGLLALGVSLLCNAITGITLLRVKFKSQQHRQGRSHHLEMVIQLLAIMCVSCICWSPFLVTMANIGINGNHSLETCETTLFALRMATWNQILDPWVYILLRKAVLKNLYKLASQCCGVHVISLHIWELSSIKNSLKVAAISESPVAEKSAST

prostaglandin F (FP) receptor, sequence (P43088 whole entry): as above

## O=C(O)CCC/C=C\C[C@@H]1[C@@H](/C=C/[C@@H](O)COc2cccc(C(F)(F)F)c2)[C@H](O)C[C@@H]1O [Travoprost acid]
[1]
  EC50: 1.4 nM
[2]
  EC50: 3.2 nM

## CC(C)OC(=O)CCC/C=C\C[C@@H]1[C@@H](/C=C/[C@@H](O)COc2cccc(C(F)(F)F)c2)[C@H](O)C[C@@H]1O [Travoprost, propan-2-yl 7-[3,5-dihydroxy-2-[3-hydroxy-4-[3-(trifluoromethyl)phenoxy]-but-1-enyl]-cyclopentyl]hept-5-enoate]
[1]
  EC50: ~1.4 nM

## O=C(O)CCC/C=C\C[C@@H]1[C@@H](/C=C/[C@@H](O)CCc2ccccc2)[C@H](O)C[C@@H]1O [Bimatoprost acid]
[1]
  EC50: ~3.3 nM
[2]
  EC50: 5.8 nM
